Active and inactive are the calls of the source. The calls are words filed in the database; no cut-off is given here.

Data set [1] relates to Rattus norvegicus. The experiment in a line: Neuroleptic activity in po dosed rat assessed as concentration required to cause 50% reduction of motor activity. Type of data set: functional.
The subject of data set [2] is Mus musculus. Kind of data set: Neuroleptic activity in po dosed mouse assessed as inhibition of d-amphetamine sulfate-induced lethality administered for 0.5 hrs followed by d-amphetamine sulfate challenge measured after 24 hrs. Type of data set: functional.
Data set [3] has as its system Mus musculus. Kind of data set: Antidepressant activity in mouse assessed as inhibition of tetrabenazine hexamate-induced depression at 25 mg/kg, po administered 1 hr followed by tetrabenazine hexamate challenge measured after 30 mins. Type of data set: functional, organism-based. Also noted: dose 25 mg/kg.
Data set [4] concerns Rattus norvegicus. The experiment in a line: Induction of catalepsy in po dosed rat measured for 0.5 to 18 hrs. Type of data set: organism-based. The following applies: in vivo.
For data set [5], the system named is Mus musculus. Kind of data set: Antidepressant activity in po dosed mouse assessed as inhibition of tetrabenazine hexamate-induced depression administered 1 hr followed by tetrabenazine hexamate challenge measured after 30 mins. The following applies: read-out: MED. Type of data set: functional.
Data set [6] has as its system Mus musculus. The experiment in a line: Neuroleptic activity in mouse assessed as inhibition of d-amphetamine sulfate-induced lethality at 20 mg/kg, ip administered for 0.5 hrs followed by d-amphetamine sulfate challenge measured after 24 hrs. Type of data set: functional, organism-based. Also noted: dose 20 mg/kg.
Data set [7] has as its system Rattus norvegicus. The experiment in a line: Neuroleptic activity in rat assessed as reduction of motor activity at 50 mg/kg, ip. Also noted: dose 50 mg/kg. Type of data set: functional, organism-based.

Take `CN1CCN(C2=Nc3cc(Cl)ccc3N(C)c3cscc32)CC1.O=C(O)/C=C/C(=O)O`: the MDD50 in the data set with Rattus norvegicus [1] was 17 mg/kg. The ED50 (as a rule, the dose that gives a 50% effect, or the effect in half of the subjects) with Mus musculus [2] is 1.4 mg/kg; in the data set on Rattus norvegicus [4] it was 40 mg/kg. For the same compound, the inhibition result in the data set on Mus musculus [3] is “inactive”.
Consider `CN(C)CCCN1c2ccccc2Sc2ccc(Cl)cc21` [CHLORPROMAZINE], for which the MDD50 in the data set on Rattus norvegicus [1] amounted to 2 mg/kg. Moreover, the ED50 in the data set on Mus musculus [2] is 0.6 mg/kg; in the data set with Rattus norvegicus [4], 7 mg/kg. Moreover, the inhibition result in the data set on Mus musculus [3] is “inactive”.
Regarding `CCN1c2ccccc2N=C(N2CCN(C)CC2)c2cscc21.O=C(O)/C=C/C(=O)O`, the MDD50 in the data set with Rattus norvegicus [1] is 23 mg/kg. Further, the ED50 in the data set with Mus musculus [2] was determined as 5.7 mg/kg. Also, the minimal effective dose in the data set on Mus musculus [5] is 6.25 mg/kg.
Consider `CCN1CCN(C2=Nc3ccccc3Nc3cscc32)CC1`, for which, in the data set on Rattus norvegicus [1], the MDD50 is 6.3 mg/kg.
`CN1CCN(C2=Nc3cc(Cl)ccc3Nc3cscc32)CC1`: the MDD50 in the data set on Rattus norvegicus [1] stood at 13.9 mg/kg. The compound further registered a 50% effective dose (ED50) with Rattus norvegicus [4] of 16 mg/kg.
Turning to `c1ccc2c(c1)N=C(NCCN1CCCCC1)c1cscc1N2`, in the data set with Rattus norvegicus [1], the MDD50 turned out to be 37 mg/kg.
Turning to `CN1c2ccccc2N=C(N2CCNCC2)c2cscc21.O=C(O)/C=C/C(=O)O`, the inhibition entry in the data set on Mus musculus [6] is “inactive”. Besides, in the data set on Mus musculus [5], the minimal effective dose was 3.1 mg/kg. The result in the data set on Rattus norvegicus [7] was inactive.
On to `Cc1cc2c(cc1C)Nc1cscc1C(N1CCN(C)CC1)=N2`, for which the MDD50 in the data set on Rattus norvegicus [1] stood at 26.2 mg/kg.
Turning to `CN1CCN(C2=Nc3cc(Cl)ccc3Nc3ccccc32)CC1` [CLOZAPINE], the MDD50 in the data set on Rattus norvegicus [1] was 21 mg/kg. Also, the ED50 in the data set with Mus musculus [2] was 2 mg/kg; in the data set on Rattus norvegicus [4] it was 76 mg/kg. The inhibition result with Mus musculus [3] is “inactive”.
Regarding `CN1CCN(C2=Nc3cc(Cl)c(Cl)cc3N(C)c3cscc32)CC1.O=C(O)/C=C/C(=O)O`, the MDD50 in the data set with Rattus norvegicus [1] was found to be 35.9 mg/kg. Also, the ED50 in the data set on Mus musculus [2] worked out at 8 mg/kg. Moreover, the inhibition entry with Mus musculus [3] was “inactive”.
As to `CN(C)C1=Nc2ccccc2Nc2cscc21`, in the data set with Rattus norvegicus [1], the MDD50 worked out at 26.5 mg/kg.
Consider `CN1CCN(C2=Nc3ccccc3N(C)c3cscc32)CC1`, for which the MDD50 in the data set with Rattus norvegicus [1] amounted to 12 mg/kg. The median effective dose (ED50) was 3.6 mg/kg in the data set with Mus musculus [2] and 14 mg/kg with Rattus norvegicus [4]. Also, in the data set on Mus musculus [5], the minimal effective dose turned out to be 3.1 mg/kg.
As for `CCN1CCN(C2=Nc3cc(Cl)ccc3N(C)c3cscc32)CC1.O=C(O)/C=C/C(=O)O`, the MDD50 with Rattus norvegicus [1] was determined as 7.3 mg/kg. Besides, the ED50 in the data set on Mus musculus [2] was 1.1 mg/kg. The inhibition entry with Mus musculus [3] is “inactive”.
On to `CCN1CCN(C2=Nc3ccccc3N(C)c3cscc32)CC1.O=C(O)/C=C/C(=O)O`, for which the minimal effective dose with Mus musculus [5] stood at 6.25 mg/kg.
As for `CN1CCN(C2=Nc3ccc(Cl)cc3Nc3cscc32)CC1`, in the data set with Rattus norvegicus [1], the MDD50 worked out at 12.3 mg/kg. The inhibition result in the data set on Mus musculus [6] is “inactive”. In the data set on Rattus norvegicus [4], this compound registered an ED50 of 16 mg/kg.
In the case of `CN1CCN(C2=Nc3ccccc3Nc3cscc32)CC1`, the MDD50 with Rattus norvegicus [1] came to 6.1 mg/kg. The ED50 in the data set on Mus musculus [2] amounted to 6 mg/kg; in the data set on Rattus norvegicus [4], 11 mg/kg.
For the compound `OCCN1CCN(C2=Nc3ccccc3Nc3cscc32)CC1`, the MDD50 in the data set with Rattus norvegicus [1] was 33.1 mg/kg.
On to `CN(C)CCCN1c2ccccc2CCc2ccccc21` [IMIPRAMINE], for which, in the data set with Rattus norvegicus [1], the MDD50 was >50 mg/kg. The ED50 in the data set on Mus musculus [2] was > 20 mg/kg. In the data set on Mus musculus [5], the minimal effective dose came out at 12 mg/kg.
For the compound `CN1CCN(C2=Nc3ccccc3N(C)c3c2csc3Cl)CC1.O=C(O)/C=C/C(=O)O`, in the data set with Mus musculus [6], the inhibition result was “inactive”. Also, in the data set on Mus musculus [5], the minimal effective dose came out at 3.1 mg/kg. Moreover, the result in the data set with Rattus norvegicus [7] was inactive.
Turning to `Cc1cc2c(cc1C)Nc1cscc1C(N1CCCCC1)=N2`, the MDD50 in the data set on Rattus norvegicus [1] stood at 50 mg/kg. The inhibition result with Mus musculus [6] is “inactive”.
On to `COc1ccc2c(c1)Nc1cscc1C(N1CCN(C)CC1)=N2`, for which the MDD50 in the data set with Rattus norvegicus [1] is 16.1 mg/kg. Also, the 50% effective dose (ED50) in the data set with Mus musculus [2] turned out to be 1.1 mg/kg; in the data set with Rattus norvegicus [4], 15 mg/kg.
`CN1CCN(C2=Nc3ccc(Cl)cc3N(C)c3cscc32)CC1`: the inhibition result in the data set with Mus musculus [6] is “inactive”. Moreover, the minimal effective dose in the data set with Mus musculus [5] came out at 12.5 mg/kg.
`CC(=O)OCCN1CCN(C2=Nc3cc(Cl)ccc3N(C)c3cscc32)CC1.O=C(O)/C=C/C(=O)O`: the MDD50 in the data set with Rattus norvegicus [1] is 26.7 mg/kg. The 50% effective dose (ED50) in the data set on Mus musculus [2] was found to be 3.2 mg/kg. In addition, the inhibition entry with Mus musculus [3] was “inactive”.
With `Cc1cc2c(cc1C)Nc1cscc1C(NCCN1CCCCC1)=N2`, the MDD50 in the data set with Rattus norvegicus [1] was determined as 50 mg/kg. In the data set on Mus musculus [6], the inhibition entry was “inactive”.
Turning to `CN1c2ccccc2N=C(N2CCN(CCO)CC2)c2cscc21.O=C(O)/C=C/C(=O)O`, the MDD50 in the data set on Rattus norvegicus [1] turned out to be 21.3 mg/kg. In addition, in the data set with Mus musculus [6], the inhibition result was “inactive”. In addition, the minimal effective dose in the data set on Mus musculus [5] came out at 12.5 mg/kg.
As to `CCCN1CCN(C2=Nc3ccccc3Nc3cscc32)CC1`, the MDD50 with Rattus norvegicus [1] was 27 mg/kg. Besides, the ED50 with Mus musculus [2] stood at 6 mg/kg.
Regarding `CN1c2ccc(Cl)cc2N=C(N2CCN(CCO)CC2)c2cscc21.Cl`, the MDD50 with Rattus norvegicus [1] was 20.4 mg/kg. Also, the 50% effective dose (ED50) in the data set with Mus musculus [2] worked out at 2 mg/kg; in the data set on Rattus norvegicus [4] it was 13 mg/kg. Besides, in the data set with Mus musculus [3], the inhibition entry was “inactive”.
For `Cc1cc2c(cc1C)N(C)c1cscc1C(N1CCN(C)CC1)=N2.O=C(O)/C=C/C(=O)O`, in the data set on Rattus norvegicus [1], the MDD50 turned out to be 58 mg/kg. Also, the inhibition entry in the data set with Mus musculus [6] and with Mus musculus [3] was “inactive” in each case.
On to `CCN1CCN(C2=Nc3ccccc3N(CC)c3cscc32)CC1.O=C(O)/C=C/C(=O)O`, for which the MDD50 with Rattus norvegicus [1] is 28 mg/kg. Besides, in the data set on Mus musculus [5], the minimal effective dose is 25 mg/kg.
On to `CCCN1CCN(C2=Nc3cc(Cl)ccc3N(C)c3cscc32)CC1.O=C(O)/C=C/C(=O)O`, for which the MDD50 in the data set with Rattus norvegicus [1] turned out to be 24 mg/kg. The inhibition entry in the data set on Mus musculus [6] and in the data set on Mus musculus [3] was “inactive” each time.
In the case of `CCN1c2ccccc2N=C(N2CCN(CCO)CC2)c2cscc21.O=C(O)/C=C/C(=O)O`, in the data set on Rattus norvegicus [1], the MDD50 was 50 mg/kg. In the data set with Mus musculus [3], the inhibition result was “inactive”.
`Cc1ccc2c(c1)Nc1cscc1C(N1CCN(C)CC1)=N2`: the MDD50 in the data set on Rattus norvegicus [1] was 9 mg/kg. Further, in the data set with Mus musculus [2], the ED50 is 5.8 mg/kg.
For `CN1CCN(C2=Nc3ccccc3N(C)c3cscc32)CC1.O=C(O)/C=C/C(=O)O`, in the data set with Rattus norvegicus [1], the MDD50 is 8.7 mg/kg. Besides, the ED50 in the data set on Mus musculus [2] is 4.8 mg/kg. Further, the minimal effective dose with Mus musculus [5] amounted to 3.1 mg/kg.

(Values after ChEMBL document CHEMBL3227931, “10-(Alkylamino)-4H-thieno[3,4-b][1,5]benzodiazepines. A novel class of potential neuroleptic agents” (J Med Chem, 1979).)
